Data set [1] in a line: Drug uptake in human HepG2 cells assessed as increase in fluorescence intensity at 25 uM incubated for 4 hrs by DAPI staining based confocal laser scanning microscopic analysis. The following applies: hepg2, 4 h. The format is ADME, cell-based.
Data set [2] can be described thus: Drug uptake in human A549 cells assessed as increase in fluorescence intensity at 25 uM incubated for 4 hrs by DAPI staining based confocal laser scanning microscopic analysis. The format is ADME, cell-based. The following applies: a549, 4 h.
Data set [3] can be described thus: Drug uptake in human HepG2 cells assessed as increase in fluorescence intensity incubated for 4 hrs by DAPI staining based confocal laser scanning microscopic analysis. Type of data set: ADME, cell-based. The following applies: hepg2, 4 h, dose 0-50 µM.
A short description of data set [4]: Drug uptake in human HepG2 cells assessed as increase in fluorescence intensity at 25 uM by DAPI staining based confocal laser scanning microscopic analysis. The format is ADME, cell-based. The following applies: hepg2, 25 µM, TDE = time-dependent effect, time 0-4 hrs.
A short description of data set [5]: Drug uptake in human HepG2 cells assessed as increase in fluorescence intensity at 25 uM at 4 degreeC incubated for 4 hrs by DAPI staining based confocal laser scanning microscopic analysis. The note with it: hepg2, 4 h. The format is ADME, cell-based.
Data set [6] can be described thus: Drug uptake in human HepG2 cells overexpressing ASGPR assessed as increase in fluorescence intensity at 25 uM incubated for 4 hrs by DAPI staining based confocal laser scanning microscopic analysis. Type of data set: ADME, cell-based. The note with it: hepg2, 4 h.
Data set [7] can be described thus: Drug uptake in human Huh-7 cells harboring low ASGPR expression assessed as increase in fluorescence intensity at 25 uM incubated for 4 hrs by DAPI staining based confocal laser scanning microscopic analysis. The format is ADME, cell-based. The following applies: huh-7, 4 h.
Data set [8] can be described thus: Drug uptake in human A549 cells lacking ASGPR expression assessed as increase in fluorescence intensity at 25 uM incubated for 4 hrs by DAPI staining based confocal laser scanning microscopic analysis. Type of data set: ADME, cell-based. The following applies: a549, 4 h.
Data set [9] is described as follows: Drug uptake in human DU-145 cells lacking ASGPR expression assessed as increase in fluorescence intensity at 25 uM incubated for 4 hrs by DAPI staining based confocal laser scanning microscopic analysis. Type of data set: ADME, cell-based. The following applies: du-145, 4 h.
Data set [10] relates to HepG2. As to the kind of experiment: Cytotoxicity against human HepG2 cells assessed as inhibition of cell growth incubated for 48 hrs by CCK-8 assay. The format is functional, cell-based. The note with it: HepG2, 48 h.
The subject of a further data set is Huh-7. As to the kind of experiment: Cytotoxicity against human Huh-7 cells assessed as inhibition of cell growth incubated for 48 hrs by CCK-8 assay. The note with it: Huh-7, 48 h. Type of data set: functional, cell-based.
A further data set deals with Bel-7402. Put plainly: Cytotoxicity against human Bel-7402 cells assessed as inhibition of cell growth incubated for 48 hrs by CCK-8 assay. The following applies: Bel-7402, 48 h. Type of data set: functional, cell-based.
For the next data set, the system named is A549. Put plainly: Cytotoxicity against human A549 cells assessed as inhibition of cell growth incubated for 48 hrs by CCK-8 assay. The note with it: A549, 48 h. Type of data set: functional, cell-based.
For a further data set, the system named is DU-145. As to the kind of experiment: Cytotoxicity against human DU-145 cells assessed as inhibition of cell growth incubated for 48 hrs by CCK-8 assay. The format is functional, cell-based. The following applies: DU-145, 48 h.
Data set [11] in a line: Cytotoxicity against human HL7702 cells assessed as inhibition of cell growth incubated for 48 hrs by CCK-8 assay. Type of data set: toxicity, cell-based. The following applies: HL7702 (L02) cells.
The nature of data set [12]: Potency index, ratio of test compound IC50 to doxorubicin IC50 for cytotoxicity against human HL7702 cells assessed as inhibition of cell growth incubated for 48 hrs by CCK-8 assay. Type of data set: toxicity, cell-based. The note with it: HL7702 (L02) cells, read-out: Ratio IC50.
Data set [13] has as its system HepG2. Put plainly: Competitive binding affinity to ASGPR in human HepG2 cells assessed as reduction in drug uptake pretreated for 0.5 hrs followed by 2-(-5-(-3,3-dimethyl-1-(6-oxo-6-((5-(((2R,3R,4S,5R)-3,4,5,6-tetrahydroxytetrahydro-2H-pyran-2-yl)methoxy)pentyl)amino)hexyl)-5-sulfoindolin-2-ylidene)penta-1,3-dien-1-yl …. The format is cell-based. The following applies: time 4.5 hrs.

For data set [14], the system named is HepG2. As to the kind of experiment: Cytotoxicity against human HepG2 cells harboring siRNA mediated ASGPR knockdown assessed as inhibition of cell growth by measuring increase in IC50 at 0.125 to 16 uM incubated for 48 hrs by CCK-8 assay. Type of data set: functional, cell-based. The following applies: dose 0.125-16 µM.

The source made the active and inactive calls. No cut-off for these calls is given here.

Regarding `CC[N+]1=C(/C=C/C=C/C=C2/N(CCCCCC(=O)NCCCCCOC[C@H]3OC(O)[C@H](O)[C@@H](O)[C@H]3O)c3ccc(S(=O)(=O)O)cc3C2(C)C)C(C)(C)c2cc(S(=O)(=O)[O-])ccc21` (stereo not given in full), the Drug uptake result in data set [1] is “Active”; in data set [2] it was “Active”; in data set [3] it was “Dose-Dependent Effect”; in [4], “Tde”; in data set [5], “Not Active”; in data set [6] it was “Active”. In addition, the Drug uptake result in [7], in [8] and in data set [9] was “Not Active” throughout.

Turning to `COc1cccc2c1C(=O)c1c(O)c3c(c(O)c1C2=O)C[C@@](O)(C(=O)CO)C[C@@H]3O[C@H]1C[C@H](NC(=O)CCCCCOC[C@H]2OC(O)[C@H](O)[C@@H](O)[C@H]2O)[C@H](O)[C@H](C)O1` (stereo not given in full), the IC50 in the data set with HepG2 [10] was greater than 10 µM; in the data set with Huh-7, greater than 10 µM; in the data set with Bel-7402, greater than 10 µM; in the data set with A549, greater than 10 µM; in the data set with DU-145 it was 6.74 µM. The IC50 at 48 h in [11] is greater than 10 µM. In addition, the selectivity ratio at 48 h in [12] is greater than 12.

Regarding `CC(=O)N[C@H]1C(O)O[C@H](CO)[C@H](O)[C@@H]1O` (stereo not given in full), in the data set on HepG2 [13], the Activity result was “Dose-Dependent Effect”.

As for `COc1cccc2c1C(=O)c1c(O)c3c(c(O)c1C2=O)C[C@@](O)(C(=O)CO)C[C@@H]3O[C@H]1C[C@H](NC(=O)CCCCCO[C@@H]2O[C@H](CO)[C@H](O)[C@H](O)[C@H]2O)[C@H](O)[C@H](C)O1`, the IC50 in the data set with HepG2 [10] is 6.71 µM; with Huh-7, 1.29 µM; with Bel-7402 it was 4.67 µM; in the data set on A549 it was greater than 10 µM; in the data set on DU-145, 2.67 µM. In addition, the concentration for half-maximal inhibition (IC50) at 48 h in data set [11] was greater than 10 µM. The selectivity ratio at 48 h in data set [12] is greater than 12. For the same compound, the result in the data set with HepG2 [14] was Active.

For the compound `CC[N+]1=C(/C=C/C=C/C=C2/N(CCCCCC(=O)NCCCCCO[C@H]3[C@@H](O)[C@@H](CO)OC(O)[C@@H]3O)c3ccc(S(=O)(=O)O)cc3C2(C)C)C(C)(C)c2cc(S(=O)(=O)[O-])ccc21` (stereo not given in full), the Drug uptake result in [1] and in [2] was “Active” throughout.

On to `OC[C@H]1OC(O)[C@H](O)[C@@H](O)[C@H]1O` (stereo not given in full), for which the Activity result in the data set with HepG2 [13] is “Dose-Dependent Effect”.

As to `COc1cccc2c1C(=O)c1c(O)c3c(c(O)c1C2=O)C[C@@](O)(C(=O)CO)C[C@@H]3O[C@H]1C[C@H](NC(=O)CCCCCO[C@H]2C(O)O[C@H](CO)[C@H](O)[C@@H]2O)[C@H](O)[C@H](C)O1` (stereo not given in full), the IC50 with HepG2 [10] is 3.44 µM; in the data set with Huh-7, 1.14 µM; in the data set on Bel-7402, 3.11 µM; in the data set on A549, 9.35 µM; with DU-145, 0.88 µM. Also, the 50% inhibitory concentration (IC50) at 48 h in [11] came out at 9.68 µM. In addition, the selectivity ratio at 48 h in [12] is greater than 12. In the data set on HepG2 [14], the result was Active.

For the compound `COc1cccc2c1C(=O)c1c(O)c3c(c(O)c1C2=O)C[C@@](O)(C(=O)CO)C[C@@H]3O[C@H]1C[C@H](N)[C@H](O)[C@H](C)O1` [DOXORUBICIN], the IC50 in the data set with Huh-7 was 0.12 µM; in the data set with Bel-7402, 0.43 µM; in the data set on DU-145, less than 0.1 µM.

For `CC[N+]1=C(/C=C/C=C/C=C2/N(CCCCCC(=O)NCCCCCOC3O[C@H](CO)[C@H](O)[C@H](O)[C@H]3O)c3ccc(S(=O)(=O)O)cc3C2(C)C)C(C)(C)c2cc(S(=O)(=O)[O-])ccc21` (stereo not given in full), the Drug uptake entry in data set [1] and in data set [2] was “Active” throughout.

As for `CC[N+]1=C(/C=C/C=C/C=C2/N(CCCCCC(=O)NCCCCCO[C@@H]3[C@H](O)[C@@H](O)C(O)O[C@@H]3CO)c3ccc(S(=O)(=O)O)cc3C2(C)C)C(C)(C)c2cc(S(=O)(=O)[O-])ccc21` (stereo not given in full), the Drug uptake result in data set [1] and in data set [2] was “Active” in each case.

For `CC[N+]1=C(/C=C/C=C/C=C2/N(CCCCCC(=O)NCCCCCO[C@H]3C(O)O[C@H](OO)[C@H](O)[C@@H]3O)c3ccc(S(=O)(=O)O)cc3C2(C)C)C(C)(C)c2cc(S(=O)(=O)[O-])ccc21` (stereo not given in full), the Drug uptake result in [1] and in data set [2] was “Active” in each case.

These data come from ChEMBL document CHEMBL5505954, “Design, synthesis and biological evaluation of the positional isomers of the galactose conjugates able to target hepatocellular carcinoma cells via ASGPR-mediated cellular uptake and cytotoxicity” (Eur J Med Chem, 2024).
